Assay results: ChEMBL document CHEMBL5505979, “Novel aminothiazoximone-corbelled ethoxycarbonylpyrimidones with antibiofilm activity to conquer Gram-negative bacteria through potential multitargeting effects” (Eur J Med Chem, 2024)
Values after ≈ are worked out from the molar mass of the structure shown. Values joined by “and” are separate entries in the source; they are usually repeats but may differ in a detail not shown here. Equal entries are not always repeated.

Assays:
Type in all cases: functional
Candida albicans [1] = test: Anti-fungal activity against Candida albicans 90023 assessed as inhibition of fungal growth
Staphylococcus aureus [2] = test: Anti-bacterial activity against Staphylococcus aureus CMCC (B) 26003 assessed as inhibition of bacterial growth
Escherichia coli [3] = test: Anti-bacterial activity against Escherichia coli JM109 assessed as inhibition of bacterial growth
Escherichia coli [4] = test: Anti-bacterial activity against Escherichia coli ATCC 25922 assessed as inhibition of bacterial growth
Candida tropicalis = test: Anti-fungal activity against Candida tropicalis assessed as inhibition of fungal growth
Staphylococcus aureus [5] = test: Anti-bacterial activity against methicillin-resistant Staphylococcus aureus ATCC 43300 assessed as inhibition of bacterial growth
Staphylococcus aureus [6] = test: Anti-bacterial activity against Staphylococcus aureus ATCC 29213 assessed as inhibition of bacterial growth
Staphylococcus aureus [7] = test: Anti-bacterial activity against Staphylococcus aureus ATCC 1708 assessed as inhibition of bacterial growth
Staphylococcus aureus [8] = test: Anti-bacterial activity against Staphylococcus aureus ATCC 12600 assessed as inhibition of bacterial growth
Pseudomonas aeruginosa [9] = test: Anti-bacterial activity against Pseudomonas aeruginosa CMCC (B) 10104 assessed as inhibition of bacterial growth
Pseudomonas aeruginosa [10] = test: Anti-bacterial activity against Pseudomonas aeruginosa ATCC 9027 assessed as inhibition of bacterial growth
Pseudomonas aeruginosa [11] = test: Anti-bacterial activity against Pseudomonas aeruginosa ATCC 15442 assessed as inhibition of bacterial growth
Pseudomonas aeruginosa [12] = test: Anti-bacterial activity against Pseudomonas aeruginosa ATCC 27853 assessed as inhibition of bacterial growth
Candida albicans [13] = test: Anti-fungal activity against Candida albicans assessed as inhibition of fungal growth
Staphylococcus aureus [14] = test: Anti-bacterial activity against methicillin-resistant Staphylococcus aureus N315 assessed as inhibition of bacterial growth
Staphylococcus aureus [15] = test: Anti-bacterial activity against Staphylococcus aureus ATCC 25923 assessed as inhibition of bacterial growth
Enterococcus faecalis = test: Anti-bacterial activity against Enterococcus faecalis V583 assessed as inhibition of bacterial growth
Klebsiella pneumoniae = test: Anti-bacterial activity against Klebsiella pneumoniae KPN325 assessed as inhibition of bacterial growth
Pseudomonas aeruginosa [16] = test: Anti-bacterial activity against Pseudomonas aeruginosa ST235 assessed as inhibition of bacterial growth
Candida parapsilosis = test: Anti-fungal activity against Candida parapsilosis assessed as inhibition of fungal growth
Acinetobacter baumannii = test: Anti-bacterial activity against Acinetobacter baumannii R674 assessed as inhibition of bacterial growth
Staphylococcus aureus [17] = test: Anti-bacterial activity against Staphylococcus aureus CMCC (B) 26001 assessed as inhibition of bacterial growth
Staphylococcus aureus [18] = test: Anti-bacterial activity against Staphylococcus aureus ATCC 6538 assessed as inhibition of bacterial growth
[19] = Candida tropicalis, read-out: MIC
[20] = Staphylococcus aureus, ATCC 43300, read-out: MIC
[21] = Staphylococcus aureus, ATCC 29213, read-out: MIC
[22] = Staphylococcus aureus, ATCC 1708, read-out: MIC
[23] = Staphylococcus aureus, ATCC 12600, read-out: MIC
[24] = Pseudomonas aeruginosa, CMCC (B) 10104, read-out: MIC
[25] = Pseudomonas aeruginosa, ATCC 15442, read-out: MIC
[26] = Pseudomonas aeruginosa, ATCC 27853, read-out: MIC
[27] = Candida albicans, read-out: MIC
[28] = Staphylococcus aureus, N315, read-out: MIC
[29] = Staphylococcus aureus, ATCC 25923, read-out: MIC
[30] = Klebsiella pneumoniae, KPN325, read-out: MIC
[31] = Pseudomonas aeruginosa, ST235, read-out: MIC
[32] = Lodderomyces parapsilosis, read-out: MIC

Row | Structure (SMILES) | MIC (Candida albicans [1]) | MIC (Staphylococcus aureus [2]) | MIC (Escherichia coli [3]) | MIC (Escherichia coli [4]) | MIC (Candida tropicalis; [19]) | MIC (Staphylococcus aureus [6]; [21]) | MIC (Staphylococcus aureus [7]; [22]) | MIC (Staphylococcus aureus [8]; [23]) | MIC (Pseudomonas aeruginosa [9]; [24]) | MIC (Pseudomonas aeruginosa [10]) | MIC (Pseudomonas aeruginosa [11]; [25]) | MIC (Pseudomonas aeruginosa [12]; [26]) | MIC (Candida albicans [13]; [27]) | MIC (Staphylococcus aureus [15]; [29]) | MIC (Enterococcus faecalis) | MIC (Klebsiella pneumoniae; [30]) | MIC (Pseudomonas aeruginosa [16]; [31]) | MIC (Candida parapsilosis; [32]) | MIC (Acinetobacter baumannii) | MIC (Staphylococcus aureus [18]) | other results
1 | CCOC(=O)C1=C(CN2CCN(C(=O)/C(=N/OC)c3csc(N)n3)CC2)NC(=O)NC1c1cccs1 (stereo not drawn) | 480 µM (≈ 256 µg/mL) | 240 µM (≈ 128 µg/mL) | 240 µM (≈ 128 µg/mL) | 240 µM (≈ 128 µg/mL) | 480 µM (≈ 256 µg/mL) | 240 µM (≈ 128 µg/mL) | 240 µM (≈ 128 µg/mL) | 240 µM (≈ 128 µg/mL) | 240 µM (≈ 128 µg/mL) | 480 µM (≈ 256 µg/mL) | 60 µM (≈ 32 µg/mL) | 240 µM (≈ 128 µg/mL) | 480 µM (≈ 256 µg/mL) | 240 µM (≈ 128 µg/mL) | 120 µM (≈ 64 µg/mL) | 240 µM (≈ 128 µg/mL) | 480 µM (≈ 256 µg/mL) | 480 µM (≈ 256 µg/mL) | 480 µM (≈ 256 µg/mL) | 60 µM (≈ 32 µg/mL) | MIC (Staphylococcus aureus [5]; [20]): 30 µM (≈ 16 µg/mL); MIC (Staphylococcus aureus [14]; [28]): 30 µM (≈ 16 µg/mL); MIC (Staphylococcus aureus [17]): 240 µM (≈ 128 µg/mL)
2 | CCOC(=O)C1=C(CN2CCN(C(=O)/C(=N/OC)c3csc(N)n3)CC2)NC(=O)NC1c1ccc(O)c(OC)c1 (stereo not drawn) | 444 µM (≈ 255 µg/mL) | 112 µM (≈ 64.2 µg/mL) | 95 µM (≈ 54.5 µg/mL) | 48 µM (≈ 27.5 µg/mL) | 444 µM (≈ 255 µg/mL) | 56 µM (≈ 32.1 µg/mL) | 112 µM (≈ 64.2 µg/mL) | 112 µM (≈ 64.2 µg/mL) | 95 µM (≈ 54.5 µg/mL) | 95 µM (≈ 54.5 µg/mL) | 48 µM (≈ 27.5 µg/mL) | 48 µM (≈ 27.5 µg/mL) | 444 µM (≈ 255 µg/mL) | 56 µM (≈ 32.1 µg/mL) | 14 µM (≈ 8.03 µg/mL) | 48 µM (≈ 27.5 µg/mL) | 48 µM (≈ 27.5 µg/mL) | 444 µM (≈ 255 µg/mL) | 48 µM (≈ 27.5 µg/mL) | 112 µM (≈ 64.2 µg/mL) | MIC (Staphylococcus aureus [5]; [20]): 28 µM (≈ 16.1 µg/mL); MIC (Staphylococcus aureus [14]; [28]): 112 µM (≈ 64.2 µg/mL); MIC (Staphylococcus aureus [17]): 56 µM (≈ 32.1 µg/mL)
3 | CCCCc1nc(Cl)c(C2NC(=O)NC(CN3CCN(CC(O)c4nccs4)CC3)=C2C(=O)OCC)[nH]1 (stereo not drawn) | – | 199 µM (≈ 110 µg/mL) | – | – | – | 50 µM (≈ 27.6 µg/mL) | – | 50 µM (≈ 27.6 µg/mL) | 199 µM (≈ 110 µg/mL) | – | – | – | 455 µM (≈ 251 µg/mL) | 50 µM (≈ 27.6 µg/mL) | – | 199 µM (≈ 110 µg/mL) | 199 µM (≈ 110 µg/mL) | 455 µM (≈ 251 µg/mL) | – | 99 µM (≈ 54.7 µg/mL) | MIC (Candida tropicalis): 227 µM and 466 µM; MIC (Staphylococcus aureus [5]): 50 µM and 116 µM; MIC (Staphylococcus aureus [6]): 58 µM (≈ 32 µg/mL); MIC (Staphylococcus aureus [7]): 99 µM and 233 µM; MIC (Staphylococcus aureus [8]): 58 µM (≈ 32 µg/mL); MIC (Pseudomonas aeruginosa [9]): 116 µM (≈ 64 µg/mL); MIC (Pseudomonas aeruginosa [11]): 50 µM and 116 µM; MIC (Pseudomonas aeruginosa [12]): 50 µM and 116 µM; MIC (Candida albicans [13]): 466 µM (≈ 257 µg/mL); MIC (Staphylococcus aureus [14]): 199 µM and 466 µM; MIC (Staphylococcus aureus [15]): 58 µM (≈ 32 µg/mL); MIC (Klebsiella pneumoniae): 233 µM (≈ 129 µg/mL); MIC (Pseudomonas aeruginosa [16]): 116 µM (≈ 64 µg/mL); MIC (Candida parapsilosis): 466 µM (≈ 257 µg/mL)
4 | CCCCc1nc(Cl)c(C2NC(=O)NC(CN3CCN(CC(=O)c4nccs4)CC3)=C2C(=O)OCC)[nH]1 (stereo not drawn) | 29 µM (≈ 16 µg/mL) | 117 µM (≈ 64.4 µg/mL) | 58 µM (≈ 31.9 µg/mL) | 58 µM (≈ 31.9 µg/mL) | 466 µM (≈ 256 µg/mL) | 58 µM (≈ 31.9 µg/mL) | 117 µM (≈ 64.4 µg/mL) | 58 µM (≈ 31.9 µg/mL) | 58 µM (≈ 31.9 µg/mL) | 58 µM (≈ 31.9 µg/mL) | 58 µM (≈ 31.9 µg/mL) | 58 µM (≈ 31.9 µg/mL) | 466 µM (≈ 256 µg/mL) | 29 µM (≈ 16 µg/mL) | 117 µM (≈ 64.4 µg/mL) | 117 µM (≈ 64.4 µg/mL) | 58 µM (≈ 31.9 µg/mL) | 466 µM (≈ 256 µg/mL) | 58 µM (≈ 31.9 µg/mL) | 29 µM (≈ 16 µg/mL) | MIC (Staphylococcus aureus [5]; [20]): 58 µM (≈ 31.9 µg/mL); MIC (Staphylococcus aureus [14]; [28]): 117 µM (≈ 64.4 µg/mL); MIC (Staphylococcus aureus [17]): 15 µM (≈ 8.25 µg/mL)
5 | CCOC(=O)C1=C(CN2CCN(C(=O)/C(=N/OC)c3csc(N)n3)CC2)NC(=O)NC1c1ccc(C#N)cc1 (stereo not drawn) | 115 µM (≈ 63.6 µg/mL) | – | 29 µM (≈ 16 µg/mL) | 29 µM (≈ 16 µg/mL) | 460 µM (≈ 254 µg/mL) | 58 µM (≈ 32.1 µg/mL) | 58 µM (≈ 32.1 µg/mL) | 58 µM (≈ 32.1 µg/mL) | 58 µM (≈ 32.1 µg/mL) | 58 µM (≈ 32.1 µg/mL) | 58 µM (≈ 32.1 µg/mL) | 58 µM (≈ 32.1 µg/mL) | 460 µM (≈ 254 µg/mL) | 58 µM (≈ 32.1 µg/mL) | 29 µM (≈ 16 µg/mL) | 116 µM (≈ 64.1 µg/mL) | 58 µM (≈ 32.1 µg/mL) | 460 µM (≈ 254 µg/mL) | 29 µM (≈ 16 µg/mL) | 58 µM (≈ 32.1 µg/mL) | MIC (Staphylococcus aureus [17]): 232 µM (≈ 128 µg/mL)
